# Measured values published in patent publication US20180160709A1, “bitter taste removing preparation and method” (priority 2016, published 2018).
# Assay: In vitro membrane dialysis: bonding between bitter ingredients and proteins
# Assay type: binding
# Details: among whey protein, milk powder, chicken ovalbumin, bovine serum albumin
# Protocol: The possible hydrophobic bonding between bitter ingredients RO and protein molecules can be explored by using membrane dialysis:
# Dialysis bag was purchased from Beijing Scientan science and technology company, molecular weight range 8-14 KD. The bag was immersed in 10 mL water in a beaker. The pore size on the membrane inhibited the protein molecules from penetrating.
# Into the first group (control samples) bags added in the sophora flavescens, gentian, and scutellaria decoctions and Berberine in aqueous solution respectively, 0.2 mL each, and diluted with water to 2 mL total volume each. To simulate the Chinese medicine, in the 4 medicine decoctions used as sample and control sample, there was no additive and without any post processing.
# In the second group of 4×5 bags, four different protein powders were added respectively: whey protein, milk powder, chicken ovalbumin, bovine serum albumin, 5 bags for each protein, 400 mg powder in each bag. As the last step of sample preparation, 2 mL of 1/10 diluted decoction solutions were added into the protein bags, 4 different protein bags for each medicine decoction to add in. Into the remaining set of 4 different protein bags from above, 2 ml water was added instead without any medicine decoction. […]
# Scheduled sampling from the 10 mL water outside the bag, and followed by HPLC quantitative analysis. […]
substance,measurement,value
"bovine serum albumin: protein powder, 400 mg per dialysis bag",encapsulation or hydrophobic bonding ability,strongest
